Structures are written as SMILES.

T1 sequence (P00533 25-1210): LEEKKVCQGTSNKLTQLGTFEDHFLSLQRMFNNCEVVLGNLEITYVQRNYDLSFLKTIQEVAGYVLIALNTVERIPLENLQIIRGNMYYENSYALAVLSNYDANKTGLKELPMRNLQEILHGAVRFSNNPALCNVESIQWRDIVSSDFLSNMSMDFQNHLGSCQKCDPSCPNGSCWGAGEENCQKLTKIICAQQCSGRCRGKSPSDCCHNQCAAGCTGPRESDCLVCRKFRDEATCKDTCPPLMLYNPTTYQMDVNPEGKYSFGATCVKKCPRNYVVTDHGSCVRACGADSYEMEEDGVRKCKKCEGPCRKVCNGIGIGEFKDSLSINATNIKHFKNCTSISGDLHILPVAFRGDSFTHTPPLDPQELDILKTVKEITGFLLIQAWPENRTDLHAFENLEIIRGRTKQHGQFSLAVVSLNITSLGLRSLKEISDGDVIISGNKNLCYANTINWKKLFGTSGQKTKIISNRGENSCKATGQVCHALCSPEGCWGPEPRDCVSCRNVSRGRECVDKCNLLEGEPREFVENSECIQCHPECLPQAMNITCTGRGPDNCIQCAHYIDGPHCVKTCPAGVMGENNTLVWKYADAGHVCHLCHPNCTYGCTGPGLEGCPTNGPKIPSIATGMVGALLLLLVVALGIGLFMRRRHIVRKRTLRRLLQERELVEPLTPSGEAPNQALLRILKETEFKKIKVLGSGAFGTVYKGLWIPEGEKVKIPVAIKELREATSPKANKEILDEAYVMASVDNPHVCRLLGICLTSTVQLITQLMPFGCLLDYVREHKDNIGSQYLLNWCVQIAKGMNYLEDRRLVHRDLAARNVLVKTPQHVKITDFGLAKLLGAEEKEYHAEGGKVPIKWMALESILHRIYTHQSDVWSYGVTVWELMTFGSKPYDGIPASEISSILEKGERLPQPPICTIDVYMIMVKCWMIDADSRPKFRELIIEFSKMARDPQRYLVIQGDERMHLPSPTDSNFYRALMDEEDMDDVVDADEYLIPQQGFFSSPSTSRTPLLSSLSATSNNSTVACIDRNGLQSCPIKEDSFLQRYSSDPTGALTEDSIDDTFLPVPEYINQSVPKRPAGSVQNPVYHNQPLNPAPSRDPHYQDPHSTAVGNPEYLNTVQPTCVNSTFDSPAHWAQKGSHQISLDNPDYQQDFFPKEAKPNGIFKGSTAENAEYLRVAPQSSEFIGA

The assay addresses T1, EGFR (Homo sapiens, UniProt P00533).
T1 construct: Add 7 ug A431 cell lysate per well (EGFR source); endogenous in cells; host or cells: A431
Nature of the assay: EGFR ELISA assay (in vitro kinase activity, EGFR captured from A431 cell lysate). The format is biochemical. Details: concentration or dose not given beside the values. The procedure, abridged: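 EGFR from A431 lysate was captured on plates coated with anti-EGFR antibody. Compounds were added 30 min before a 5 min phosphorylation with 3 µM ATP/5 mM MnCl2, which was stopped with 20 mM EDTA. Phosphotyrosine was detected with rabbit anti-phosphotyrosine, then a peroxidase-conjugated secondary and ABTS/H2O2, read at 410 nm.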
For `O=C1Nc2ccc(S(=O)(=O)N3CCOCC3)cc2C1=Cc1coc2ccc(Cl)cc2c1=O` [10730/F06], the “Biochem EGFR %Inhibition” value was -0.6%.

`COc1cc(C=C2C(=O)Nc3ccc(S(=O)(=O)N4CCOCC4)cc32)cc(OC)c1OC` [10730/F04]: the “Biochem EGFR %Inhibition” value is on record as -4.8%.

Turning to `COc1cc(OC)c(OC)cc1C=C1C(=O)Nc2ccc(S(=O)(=O)Nc3ccc(C(F)(F)F)cc3)cc21` [10730/E03], the “Biochem EGFR %Inhibition” value worked out at 65.3%.

As to `COc1ccc(C=C2C(=O)Nc3ccc(Br)c(C)c32)c(OC)c1OC` [10730/C02], the “Biochem EGFR %Inhibition” value is on record as 2.7%.

Turning to `COC1CC(C=C2C(=O)Nc3c(Br)cc(Br)cc32)C(OC)O1` (stereo not shown) [10730/A10], the “Biochem EGFR %Inhibition” value was determined as 56.1%.

For `O=C1Nc2ccc(CCCl)cc2C1=CC1C=CCCC1` (stereo not shown) [10729/G11], the “Biochem EGFR %Inhibition” value stood at 23.4%.

On to `Cc1c(Br)ccc2c1C(=Cc1coc3ccc(Cl)cc3c1=O)C(=O)N2` [10730/C06], for which the “Biochem EGFR %Inhibition” value is 8.5%.

In the case of `CC(=O)n1cc(C=C2C(=O)Nc3ccc(I)cc32)c2ccccc21` [10730/B05], the “Biochem EGFR %Inhibition” value is reported as 8.5%.

As to `O=C1Nc2ccc(S(=O)(=O)N3CCOCC3)cc2C1=Cc1ccc(-c2ccccc2Cl)o1` [10730/F07], the “Biochem EGFR %Inhibition” value was 27.3%.

`O=C1Nc2ccc(I)cc2C1=Cc1ccc([N+](=O)[O-])o1` [10718/B11]: the “Biochem EGFR %Inhibition” value stood at 30.3%.

For the molecule `COC1CC(C=C2C(=O)Nc3ccc(Br)c(C)c32)C(OC)O1` (stereo not shown) [10730/C10], the “Biochem EGFR %Inhibition” value came out at 20.5%.

With `COc1cc(C=C2C(=O)Nc3ccc(Br)c(C)c32)cc(OC)c1OC` [10730/C04], the “Biochem EGFR %Inhibition” value is reported as 0.1%.

As for `O=C1Nc2c(Br)cc(Br)cc2C1=Cc1coc2c(Br)cc(Br)cc2c1=O` [10730/A09], the “Biochem EGFR %Inhibition” value amounted to 1.1%.

`O=C1Nc2ccc(I)cc2C1=Cc1ccco1` [10718/B10]: the “Biochem EGFR %Inhibition” value was found to be 13.7%.

As to `O=C1Nc2ccc(I)cc2C1=Cc1ccc(Cl)c([N+](=O)[O-])c1` [10718/B08], the “Biochem EGFR %Inhibition” value came out at 28.9%.

Turning to `CNS(=O)(=O)c1ccc2c(c1)C(=Cc1cc(C)c(C)o1)C(=O)N2` [10730/D11], the “Biochem EGFR %Inhibition” value was determined as 2.0%.

`COc1cc(C=C2C(=O)Nc3c(Br)cc(Br)cc32)cc(OC)c1OC` [10730/A04]: the “Biochem EGFR %Inhibition” value is 37.2%.

For the molecule `Cc1cc(C=C2C(=O)Nc3ccc(I)cc32)oc1C` [10730/B11], the “Biochem EGFR %Inhibition” value is reported as 70.2%.

`O=C1Nc2ccc(I)cc2C1=Cc1coc2ccc(Cl)cc2c1=O` [10730/B06]: the “Biochem EGFR %Inhibition” value stood at 25.0%.

`Cc1c(Br)ccc2c1C(=Cc1coc3c(Br)cc(Br)cc3c1=O)C(=O)N2` [10730/C09]: the “Biochem EGFR %Inhibition” value came to 28.2%.

`CC(=O)n1cc(C=C2C(=O)Nc3ccc(S(=O)(=O)Nc4ccc(C(F)(F)F)cc4)cc32)c2ccccc21` [10730/E05]: the “Biochem EGFR %Inhibition” value is given as 15.8%.

On to `Cc1ccsc1C=C1C(=O)Nc2ccc(CCCl)cc21` [10729/G05], for which the “Biochem EGFR %Inhibition” value stood at 4.4%.

Take `CNS(=O)(=O)c1ccc2c(c1)C(=Cc1coc3ccc(Cl)cc3c1=O)C(=O)N2` [10730/D06]: the “Biochem EGFR %Inhibition” value was found to be 35.3%.

With `CNS(=O)(=O)c1ccc2c(c1)C(=Cc1cc3ccccc3nc1Cl)C(=O)N2` [10730/D08], the “Biochem EGFR %Inhibition” value is on record as 44.9%.

For the molecule `COc1ccc(C=C2C(=O)Nc3ccc(I)cc32)c(OC)c1OC` [10730/B02], the “Biochem EGFR %Inhibition” value came to 10.4%.

With `CNS(=O)(=O)c1ccc2c(c1)C(=Cc1cc(OC)c(OC)c(OC)c1)C(=O)N2` [10730/D04], the “Biochem EGFR %Inhibition” value is 10.4%.

Regarding `Cc1c(Br)ccc2c1C(=Cc1ccc(-c3ccccc3Cl)o1)C(=O)N2` [10730/C07], the “Biochem EGFR %Inhibition” value is on record as 20.3%.

As for `CCOC(=O)c1c(C)[nH]c(C=C2C(=O)Nc3ccc(Br)c(C)c32)c1C` [10718/C02], the “Biochem EGFR %Inhibition” value is reported as -21.9%.

The values above are taken from EP1247803A2, “Indolinone compounds suitable for modulation of protein kinases” (Sugen, Inc., priority 1996, dated 1998).
